{"source": "patent US20250152568A1", "about": "“METHODS OF TREATING COMPLEX REGIONAL PAIN SYNDROME” (Aisa Pharma, Inc., priority 2022, published 2025)", "origin": "cited, not measured here", "target": "Nav 1.7 sodium channel (Homo sapiens, UniProt Q15858)", "sequence (Q15858 whole entry)": "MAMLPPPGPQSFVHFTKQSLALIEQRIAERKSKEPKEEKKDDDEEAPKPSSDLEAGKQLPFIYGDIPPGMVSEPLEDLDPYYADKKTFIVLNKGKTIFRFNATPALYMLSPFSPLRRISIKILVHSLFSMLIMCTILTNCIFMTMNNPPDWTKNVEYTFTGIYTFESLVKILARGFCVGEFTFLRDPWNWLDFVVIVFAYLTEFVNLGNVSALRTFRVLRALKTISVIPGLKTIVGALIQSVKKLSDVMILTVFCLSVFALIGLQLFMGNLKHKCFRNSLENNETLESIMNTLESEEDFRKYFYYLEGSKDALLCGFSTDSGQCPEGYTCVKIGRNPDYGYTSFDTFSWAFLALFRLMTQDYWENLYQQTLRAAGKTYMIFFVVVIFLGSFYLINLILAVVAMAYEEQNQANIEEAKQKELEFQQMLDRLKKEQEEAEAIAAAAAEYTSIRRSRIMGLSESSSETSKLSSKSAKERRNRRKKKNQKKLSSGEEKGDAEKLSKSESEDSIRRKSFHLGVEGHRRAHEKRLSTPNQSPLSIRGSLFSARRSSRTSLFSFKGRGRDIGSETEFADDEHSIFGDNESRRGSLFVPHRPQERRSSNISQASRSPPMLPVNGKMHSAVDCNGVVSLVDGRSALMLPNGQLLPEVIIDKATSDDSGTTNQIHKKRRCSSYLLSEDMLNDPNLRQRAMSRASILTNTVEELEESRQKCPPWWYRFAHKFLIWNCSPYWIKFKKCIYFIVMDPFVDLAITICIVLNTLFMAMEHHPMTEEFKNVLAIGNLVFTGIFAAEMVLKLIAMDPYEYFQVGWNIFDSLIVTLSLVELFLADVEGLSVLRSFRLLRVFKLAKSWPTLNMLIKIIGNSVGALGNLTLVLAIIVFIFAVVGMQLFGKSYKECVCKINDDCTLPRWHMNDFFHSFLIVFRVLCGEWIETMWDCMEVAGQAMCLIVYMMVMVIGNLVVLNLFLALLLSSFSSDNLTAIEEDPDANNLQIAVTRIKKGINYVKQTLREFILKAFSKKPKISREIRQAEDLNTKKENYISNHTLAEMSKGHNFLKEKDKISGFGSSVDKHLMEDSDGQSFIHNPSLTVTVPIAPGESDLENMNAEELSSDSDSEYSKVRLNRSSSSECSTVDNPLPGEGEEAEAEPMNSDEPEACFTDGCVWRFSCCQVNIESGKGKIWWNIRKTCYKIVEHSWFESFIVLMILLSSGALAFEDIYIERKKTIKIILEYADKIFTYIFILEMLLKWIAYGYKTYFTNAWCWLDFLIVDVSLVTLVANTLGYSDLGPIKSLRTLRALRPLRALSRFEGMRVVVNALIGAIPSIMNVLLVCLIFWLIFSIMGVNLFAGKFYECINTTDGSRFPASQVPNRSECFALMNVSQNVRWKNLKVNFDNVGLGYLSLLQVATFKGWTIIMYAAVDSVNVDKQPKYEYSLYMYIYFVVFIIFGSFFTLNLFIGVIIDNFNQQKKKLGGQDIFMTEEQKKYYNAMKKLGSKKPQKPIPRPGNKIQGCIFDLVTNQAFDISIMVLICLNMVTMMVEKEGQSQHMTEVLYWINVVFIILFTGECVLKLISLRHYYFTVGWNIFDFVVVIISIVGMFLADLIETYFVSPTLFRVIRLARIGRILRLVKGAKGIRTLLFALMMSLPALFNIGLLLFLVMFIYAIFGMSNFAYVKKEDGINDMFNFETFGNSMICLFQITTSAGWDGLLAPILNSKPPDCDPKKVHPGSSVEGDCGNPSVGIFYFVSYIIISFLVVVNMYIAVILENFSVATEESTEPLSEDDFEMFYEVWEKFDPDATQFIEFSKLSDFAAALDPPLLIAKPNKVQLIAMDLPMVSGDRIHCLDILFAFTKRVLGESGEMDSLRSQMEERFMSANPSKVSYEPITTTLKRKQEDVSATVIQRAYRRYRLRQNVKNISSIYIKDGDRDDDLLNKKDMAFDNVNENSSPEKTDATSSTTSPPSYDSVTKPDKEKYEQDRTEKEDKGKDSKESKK", "conditions": "20 mg dose of cilnidipine vs 1800 mg dose of gabapentin; see WO2021/178903", "data": [{"compound": "COCCOC(=O)C1=C(C)NC(C)=C(C(=O)OC/C=C/c2ccccc2)C1c1cccc([N+](=O)[O-])c1", "note": "(stereo not shown) [cilnidipine]", "values": [{"measurement": "inhibition of Nav 1.7 compared to an 1800 mg dose of gabapentin", "value": "> 6", "unit": "fold"}]}]}
